Experimental data published in patent US20230173005A1 (ASIA UNIVERSITY, priority 2021, published 2023).

Columns and labels:
LC3B = assay: Western blotting of kidney, LC3B; type: in vivo, mouse; details: cisplatin 20 mg/Kg i.p. vs control group
Procedure: (§1) Male ICR mice aged 7-8 weeks (each weighing about 30-32 grams) were divided into 6 groups, 10 mice per group, and the six groups correspond to a control group, an induction group, a positive control group and low-medium-high dose brown Flammulina velutipes water extract groups. The entire process was limited to 10 days. […] Both of the induction and the sacrifice were performed in a fasting state.
(§2) The administration was performed for 10 consecutive days while feeding at around 10 a.m. Normal food was provided during the above period. […] On the day before induction, all […] groups were treated on an empty stomach.
(§3) The kidneys were homogenized with a PBS solution and diluted 10 folds to form a homogeneous solution, and the homogeneous solution was centrifuged at 12,000 rpm at 4° C. for 20 minutes. The supernatant was taken to quantify each protein concentration, and treated to have a uniform concentration. A protein was added to a protein dye to form a sample, placed in a drying bath at 100° C., and heated for 5 minutes. Then, the sample was injected into 10%, 15% or 8% of colloid prepared with 40% of acrylamide/bisN,N-methylenbisacrylamide, in which the ratio of acrylamide to bisN,N-methylenbisacrylamide was 29:1. […]
(§4) After completion of the transfer, blocking was performed for 1 hour using milk. […] In addition, image data were acquired and analyzed by the Image J system.

[1] = tested on: superoxide dismutase (SOD); assay: Western blotting of kidney, SOD; type: in vivo, mouse
Procedure: as §1, §2, §3, §4

Bcl-2 = assay: Western blotting of kidney, Bcl-2; type: in vivo, mouse
Procedure: as §1, §2, §3, §4

Nrf2 = assay: Western blotting of kidney, Nrf2; type: in vivo, mouse; details: cisplatin 20 mg/Kg i.p. vs control group
Procedure: as §1, §2, §3, §4

AKT = assay: Western blotting of kidney, AKT; type: in vivo, mouse; details: cisplatin 20 mg/Kg i.p. vs control group
Procedure: as §1, §2, §3, §4

COX-2 = assay: Western blotting of kidney, COX-2; type: in vivo, mouse
Procedure: as §1, §2, §3, §4

p62 = assay: Western blotting of kidney, p62; type: in vivo, mouse; details: cisplatin 20 mg/Kg i.p. vs control group
Procedure: as §1, §2, §3, §4

Beclin-1 = assay: Western blotting of kidney, Beclin-1; type: in vivo, mouse; details: cisplatin 20 mg/Kg i.p. vs control group
Procedure: as §1, §2, §3, §4

IL-6 = assay: Cytokine analysis (ELISA), IL-6; type: in vivo, mouse; details: serum ELISA; cisplatin 20 mg/Kg i.p. vs control group
Procedure: as §1, §2
(§5) After sacrificing the mice to collect corresponding blood, and serum was separated and then diluted 10-fold or 5-fold. TNF-α, IL-6 and IL-1β were analyzed according to the multiple antibody sandwich principle by using BioLegend Company's ELISA kits.
(§6) In a 96-well microassay plate, 100 μL of capture antibody was added to each well, and placed at room temperature overnight. […] Finally, 2 equivalents of 100 μL of sulfuric acid as a stop solution was added, and the change in absorbance at a wavelength of 450 nm was measured with a microplate spectrometer. The concentration of cytokines in serum was additionally calculated.

p-NFκB = assay: Western blotting of kidney, p-NFκB; type: in vivo, mouse
Procedure: as §1, §2, §3, §4

PI3K = assay: Western blotting of kidney, PI3K; type: in vivo, mouse; details: cisplatin 20 mg/Kg i.p. vs control group
Procedure: as §1, §2, §3, §4

[2] = tested on: glutathione peroxidase (GPX1); assay: Western blotting of kidney, GPX1; type: in vivo, mouse
Procedure: as §1, §2, §3, §4

NO free radicals = assay: Nitrite analysis of mouse serum; type: in vivo; details: cisplatin 20 mg/Kg i.p.
Procedure: as §1, §2
Mouse serum was taken by 100 μL each and added to a new 96-well microassay plate. Then, Griess Reagent was added by the same amount of […]. The Griess reagent was obtained by mixing an aqueous solution of N-(1-naphthyl)ethylenediamine with a 1% sulfanilamide solution dissolved in 5% phosphoric acid in the volumetric ratio of 1:1. Thereafter, the absorbance was measured at a wavelength of 540 nm using a microplate spectrometer (Molecular Devices), so that the ability of removing NO free radicals was measured in each group.

iNOS = assay: Western blotting of kidney, iNOS; type: in vivo, mouse
Procedure: as §1, §2, §3, §4

TNF-α = assay: Cytokine analysis (ELISA), TNF-α; type: in vivo, mouse; details: serum ELISA; cisplatin 20 mg/Kg i.p. vs control group
Procedure: as §1, §2, §5, §6

IL-1β = assay: Cytokine analysis (ELISA), IL-1β; type: in vivo, mouse; details: serum ELISA; cisplatin 20 mg/Kg i.p. vs control group
Procedure: as §1, §2, §5, §6

HO-1 = assay: Western blotting of kidney, HO-1; type: in vivo, mouse; details: cisplatin 20 mg/Kg i.p. vs control group
Procedure: as §1, §2, §3, §4

TLR4 = assay: Western blotting of kidney, TLR4; type: in vivo, mouse
Procedure: as §1, §2, §3, §4

BAX = assay: Western blotting of kidney, BAX; type: in vivo, mouse
Procedure: as §1, §2, §3, §4

[3] = tested on: mouse model of the acute renal failure induced by cisplatin; assay: Measurement on kidney weight/body weight ratio; type: in vivo; details: Amifostine 200 mg/kg i.p. 30 min after cisplatin 20 mg/Kg day 7
Procedure: as §1, §2
Kidneys were removed from the mouse body, and adrenal glands and surrounding fat were removed, washed with saline and then weighed immediately. The weights of the both kidneys were obtained and compared with the weight of the mouse measured on the last day, and the difference between the kidney/weight ratios of the mice was calculated.

[4] = tested on: mouse model of the acute renal failure induced by cisplatin; assay: Weight measurement in cisplatin-induced mice; type: in vivo; details: Amifostine 200 mg/kg i.p. 30 min after cisplatin 20 mg/Kg day 7
Procedure: as §1, §2

catalase = type: in vivo, mouse; details: kidney; Amifostine 200 mg/Kg i.p. or WFV 1000 mg/kg oral in advance
Procedure: as §1, §2, §3, §4

[5] = cisplatin 20 mg/Kg i.p. vs control group
[6] = Amifostine 200 mg/Kg i.p. or WFV 1000 mg/kg oral in advance
[7] = Amifostine 200 mg/Kg i.p. or high-dose WFV (1000 mg/Kg oral) vs induction group
[8] = Amifostine 200 mg/Kg i.p. or high-dose WFV (1000 mg/Kg oral) vs cisplatin induction group

N.N.[Cl][Pt][Cl] [Cis, cisplatin]
level of LC3B (LC3B): significantly increased | expression level of SOD [1, 5]: decreased | expression level of Bcl-2 (Bcl-2; [5]): decreased | expression level of Nrf2 (Nrf2): significantly increased | expression level of AKT (AKT): significantly increased | expression level of COX-2 (COX-2; [5]): significant differences compared with the control group | level of p62 (p62): significantly increased | level of Beclin-1 (Beclin-1): significantly increased | concentration of IL-6 (IL-6): increased | expression level of p-NFκB (p-NFκB; [5]): upward trend | expression level of PI3K (PI3K): significantly increased | expression level of GPX1 [2, 5]: decreased | expression level of NO free radicals (nitrite in serum) (NO free radicals): increased remarkably | expression level of iNOS (iNOS; [5]): significant differences compared with the control group | concentration of TNF-α (TNF-α): increased | concentration of IL-1β (IL-1β): increased | expression level of HO-1 (HO-1): significantly increased | expression level of TLR4 (TLR4; [5]): upward trend | expression level of apoptogenic protein BAX (BAX; [5]): increased

NCCCNCCSP(=O)(O)O [Ami, Amifostine]
Kidney weight [3]: 0.55 ± 0.025 g | expression level of SOD [1, 6]: not decreased | expression level of Bcl-2 (Bcl-2; [7]): increased | expression level of COX-2 (COX-2; [8]): decreased | Body weight After [4]: 36.6 ± 0.18 g | expression level of p-NFκB (p-NFκB; [8]): decreased | expression level of GPX1 [2, 6]: not decreased | expression level of iNOS (iNOS; [8]): decreased | expression level of catalase (catalase): not decreased | expression level of TLR4 (TLR4; [8]): decreased | expression level of apoptogenic protein BAX (BAX; [7]): significantly decreased
